Source: patent US20230285457A1, “NANOPARTICLES FOR CANCER TREATMENT” (Universidad de Guadalajara, priority 2019, published 2023)

Assay: Quantification of the DOX encapsulation percentage in the nanoparticle
Type: physicochemical
Conditions: DOX with respect to the mass of PLGA in the nanoparticles; mean ± DE, n = 3
Method: To evaluate the DOX release profile contained in anti-GZMB PLGA/DOX/Ch/ICG NPs, firstly, the quantification of the encapsulation percentage in the nanoparticle was performed by dissolving the PLGA NPs pellet in acetone, quantifying the fluorescence intensity and interpolating fluorescence intensity against DOX standard; this assay was performed in fluorescence plates of 96-well Clear Bottom (Corning®—CLS3904) using excitation and emission at 488 and 560 nm, respectively.

Compound: COc1cccc2c1C(=O)c1c(O)c3c(c(O)c1C2=O)C[C@@](O)(C(=O)CO)C[C@@H]3O[C@H]1C[C@H](N)[C@H](O)[C@H](C)O1 [DOX, doxorubicin]
- Encapsulation percentage (w/w): 7.32 ± 1.4 percentage (w/w)
